Here are results for twelve molecules from US20220009922A1, “NOVEL UREA 6,7-DIHYDRO-4H-PYRAZOLO[4,3-C]PYRIDINES ACTIVE AGAINST THE HEPATITIS B VIRUS (HBV)” (AiCuris GmbH & Co. KG, priority 2018, published 2022).

Molecules are shown by their SMILES.

One data set relates to HepAD38 cells. Put plainly: Cell viability assay (AlamarBlue) in HepAD38 cells. The following applies: HepAD38 cells in the presence of 0.3 μg/ml tetracycline, six days incubation. (Resazurin is reduced to fluorescent resorufin, in cell work by metabolically active cells.)
What is called CC50 is the concentration at which the toxic effect on the cells reaches its halfway point. For the molecule `CC1Cc2n[nH]c(C(=O)N3CC(F)(F)CC34CC4)c2CN1C(=O)Nc1ccc(F)c(Cl)c1` (single isomer, unassigned) [Example 9, N-(3-chloro-4-fluorophenyl)-3-{6,6-difluoro-4-azaspiro[2.4]heptane-4-carbonyl}-6-methyl-2H,4H,5H,6H,7H-pyrazolo[4,3-c]pyridine-5-carboxamide], the CC50 is more than 10 µM.

In another data set the test system is HBV.
Assay: not given
To be noted: Hepatitis B virus, HePAD38, 144 h, read-out: Cell Activity (EC50).
What is called EC50 is the concentration that produces a half-maximal response. For `CC1Cc2n[nH]c(C(=O)N3CC(F)(F)CC34CC4)c2CN1C(=O)Nc1ccc(F)c(Cl)c1` (single isomer, unassigned) [Example 8, N-(3-chloro-4-fluorophenyl)-3-{6,6-difluoro-4-azaspiro[2.4]heptane-4-carbonyl}-6-methyl-2H,4H,5H,6H,7H-pyrazolo[4,3-c]pyridine-5-carboxamide], the EC50 is less than 1 µM. The same measure, in the same setting: as for `CN(C(=O)c1n[nH]c2c1CN(C(=O)Nc1ccc(F)c(Cl)c1)CC2)C1(COC(F)F)CC1` [Example 1, N5-(3-chloro-4-fluorophenyl)-N3-{1-[(difluoromethoxy)methyl]cyclopropyl}-N3-methyl-1H,4H,5H,6H,7H-pyrazolo[4,3-c]pyridine-3,5-dicarboxamide], the figure is less than 1 µM. On the same count and under the same terms, under `COCC1(N(C)C(=O)c2n[nH]c3c2CN(C(=O)Nc2ccc(F)c(Cl)c2)CC3)CC1` [Example 2, N5-(3-chloro-4-fluorophenyl)-N3-[1-(methoxymethyl)cyclopropyl]-N3-methyl-1H,4H,5H,6H,7H-pyrazolo[4,3-c]pyridine-3,5-dicarboxamide] stands less than 1 µM. Same read-out and setting: as for `CN(C(=O)c1n[nH]c2c1CN(C(=O)Nc1ccc(F)c(Cl)c1)CC2)C1(CO)CC1` [Example 3, N5-(3-chloro-4-fluorophenyl)-N3-[1-(hydroxymethyl)cyclopropyl]-N3-methyl-1H,4H,5H,6H,7H-pyrazolo[4,3-c]pyridine-3,5-dicarboxamide], the figure is less than 1 µM; as for `COCC1(N(C)C(=O)c2n[nH]c3c2CN(C(=O)Nc2ccc(F)c(C#N)c2)CC3)CC1` [Example 4, N5-(3-cyano-4-fluorophenyl)-N3-[1-(methoxymethyl)cyclopropyl]-N3-methyl-1H,4H,5H,6H,7H-pyrazolo[4,3-c]pyridine-3,5-dicarboxamide], less than 1 µM; as for `CC(C)OCC1(N(C)C(=O)c2n[nH]c3c2CN(C(=O)Nc2ccc(F)c(Cl)c2)CC3)CC1` [Example 5, N5-(3-chloro-4-fluorophenyl)-N3-methyl-N3-{1-[(propan-2-yloxy)methyl]cyclopropyl}-1H,4H,5H,6H,7H-pyrazolo[4,3-c]pyridine-3,5-dicarboxamide], less than 1 µM. As for `CCOCC1(N(C)C(=O)c2n[nH]c3c2CN(C(=O)Nc2ccc(F)c(Cl)c2)CC3)CC1` [Example 6, N5-(3-chloro-4-fluorophenyl)-N3-[1-(ethoxymethyl)cyclopropyl]-N3-methyl-1H,4H,5H,6H,7H-pyrazolo[4,3-c]pyridine-3,5-dicarboxamide], the EC50 was less than 1 µM.

Take `O=C(Nc1ccc(F)c(Cl)c1)N1CCc2n[nH]c(C(=O)N3CC(F)(F)CC34CC4)c2C1` [Example 7, N-(3-chloro-4-fluorophenyl)-3-{6,6-difluoro-4-azaspiro[2.4]heptane-4-carbonyl}-2H,4H,5H,6H,7H-pyrazolo[4,3-c]pyridine-5-carboxamide]: the EC50 is less than 1 µM. On the same count and under the same terms, as for `CN(C(=O)c1[nH]nc2c1CN(C(=O)Nc1ccc(F)c(Cl)c1)CC2)C1(COC(=O)C2(N)CC2)CC1` [Example 10, (1-{-methyl5-[(3-chloro-4-fluorophenyl)carbamoyl]-2H,4H,5H, 6H,7H-pyrazolo[4,3-c]pyridine-3-amido}cyclopropyl)methyl 1-aminocyclopropane-1-carboxylate], the figure is less than 1 µM; as for `O=C(Nc1ccc(F)c(Cl)c1)N1CCc2n[nH]c(C(=O)N3CCCOCC34CC4)c2C1` [Example 11, N-(3-chloro-4-fluorophenyl)-3-{8-oxa-4-azaspiro[2.6]nonane-4-carbonyl}-2H,4H,5H,6H,7H-pyrazolo[4,3-c]pyridine-5-carboxamide], less than 1 µM; as for `O=C(Nc1ccc(F)c(Cl)c1)N1CCc2n[nH]c(C(=O)N3CCC(O)CC34CC4)c2C1` (stereo not shown) [Example 12, N-(3-chloro-4-fluorophenyl)-3-{7-hydroxy-4-azaspiro[2.5]octane-4-carbonyl}-2H,4H,5H,6H,7H-pyrazolo[4,3-c]pyridine-5-carboxamide], less than 1 µM.

Still in this data set, the particulars now being: read-out: Cell Activity (EC50); HepAD38 cells, HBV DNA in supernatant at day 6, qPCR.
As to `CC1Cc2n[nH]c(C(=O)N3CC(F)(F)CC34CC4)c2CN1C(=O)Nc1ccc(F)c(Cl)c1` (single isomer, unassigned) [Example 9, N-(3-chloro-4-fluorophenyl)-3-{6,6-difluoro-4-azaspiro[2.4]heptane-4-carbonyl}-6-methyl-2H,4H,5H,6H,7H-pyrazolo[4,3-c]pyridine-5-carboxamide], the EC50 is less than 1 µM.
